# Source: patent publication US8492391B2, “Substituted 6-(2-hydroxybenzylamino)purine derivatives, their use as medicaments and compositions containing these derivatives” (Univerzita Palackeho V Olomouci, priority 2009, dated 2013)
# Entries after “also recorded” stand apart in the source; their conditions may differ.
# Columns and labels:
# [1] = tested on: MCF7 (human breast adenocarcinoma); test: Calcein AM cytotoxicity assay, MCF7; assay type: cell-based
# Text: Cytotoxicity of the compounds is the major property determining their anticancer effect in vivo. One of the parameters used, as the basis for cytotoxicity assays, is the metabolic activity of viable cells. For example, a microtiter assay, which uses the Calcein AM, is now widely used to quantitate cell proliferation and cytotoxicity. For instance, this assay is used in drug screening programs and in chemosensitivity testing. Because only metabolically active cells cleave Calcein AM, these assays detect viable cells exclusively. The quantity of cleaved Calcein AM corresponds to the number of vital cells in the culture. We have been using the following cell lines: MCF7 (human breast adenocarcinoma), K562 (human chronic myelogenous leukaemia), HOS (human osteogenic sarcoma), HeLa (human cervical carcinoma), HL 60 (human promyelocytic leukaemia), G 361 (human malignant melanoma), CEM (human lymphoblastoid leukaemia). All cell lines were grown in DMEM medium (Gibco BRL) supplemented with 10% (v/v) fetal bovine serum and L-glutamine and maintained at 37° C. in a humidified atmosphere with 5% CO2. For cytotoxicity assays, 10^4 cells were seeded into each well of 96 well plate, allowed to stabilize for at least 2 h and then tested compounds were added at various concentrations ranging from 100 to 0.1 μM in triplicates. Three days after drug addition Calcein AM solution (Molecular Probes) was added and let to enter the cells for 1 hour. Fluorescence of viable cells was quantified using Fluoroskan Ascent (Microsystems).
# [2] = tested on: C-terminal domain of RNA polymerase II (serine 2 and serine 5 phosphorylation); test: Immunoblotting of RNA polymerase II CTD phosphorylation (CDK9 activity in cells), MCF-7; assay type: cell-based, human; settings: MCF-7 cells
# Description: Effect of compounds on CDK9 activity in cells was monitored by site-specific phosphorylations of C-terminal domain of RNA polymerase II, a substrate of CDK9, by means of immunoblotting. For immunoblotting, cell were detached with rubber policeman and washed three times with ice-cold PBS and lysed in buffer (50 mM Tris, pH 7.4, 250 mM NaCl, 5 mM EDTA, 50 mM NaF, 1 mM Na3VO4, 1% Nonidet P40) containing mixture of protease and phosphatase inhibitors (Sigma-Aldrich, USA). 20 μg of total proteins were separated by SDS-polyacrylamide gel electrophoresis (SDS-PAGE) and transferred onto nitrocellulose membranes. Membranes were blocked in 5% milk and 0.1% Tween 20 in PBS and probed overnight with specific monoclonal antibodies or rabbit polyclonal sera. Primary antibodies specific for RNA polymerase II (all from Santa Cruz Biotechnology, California, USA) included: (i) N-20 used at 1 μg/ml, (ii) H14, specific for form phosphorylated at phosphoserine 5, used at 6 μg/ml and (iii) H5, specific for form phosphorylated at phosphoserine 2 used at 4 μg/ml. […] All primary antibodies were diluted in PBS containing 5% powdered milk; 0.1% Tween 20. Peroxidase conjugated rabbit anti-mouse immunoglobulin or porcine anti-rabbit immunoglobulin antisera (DAKO, Denmark) were used as the secondary antibodies and visualised with ECL reagents (Amersham-Pharmacia, Little Chalfont, UK). […]
# p53 = test: p53-dependent transcription, β-galactosidase reporter in Arn8 cells; assay type: cell-based, human; set-up: key to p53 (effect): induction of p53 protein: ++: very strong; +: weak; −: no effect
# P388D1 leukemia = test: Survival model of P388D1 leukemia transplanted intraperitoneally; assay type: in vivo, DBA-2 mice; settings: 250 mg/kg orally twice daily, Days 1-3 and 7-9
# Description: Screening of biological activity of compound 128 was performed on survival model of P388D1 leukemia transplanted intraperitoneally with 2.10^5 cells. DBA-2 mice were used as a host. One day following the leukemia transplantation, treatment with 128 was initiated. The drug was given orally by gastric gavages in total volume of 200 μl/dose twice daily at dose 250 mg/kg in two chemotherapy cycles (Days 1-3 and 7-9). The compound 128 was solubilized in 5% N-methyl-2-pyrollidine, 30% polyethylene glycol 400, 65% tartar buffer (pH 3.0). Survival analysis of treated animals (10 mice/group) was preformed in comparison with vehicle treated mice using Kaplan-Meier method and the significance was evaluated by the log-rank test. Body weight of experimental animals was evaluated in parallel in order to reflect toxicity and efficacy of therapy. Comparative analysis of body weight was performed using non-parametric t-test.
# A549 lung adenocarcinoma = test: Human xenograft model of A549 lung adenocarcinoma; assay type: in vivo; settings: 150 mg/kg orally twice daily
# Description: More detailed analysis of anticancer activity of compound 128 was performed on human xenograft model of A549 lung adenocarcinoma transplanted to CD-1 SCID mice. Animals were transplanted subcutaneously with 2.10^6 A549 cells into lower back. Approximately one month later, majority of animals developed palpable tumors and therapy was initiated. The drug was given orally by gastric gavages in total volume of 200 μl/dose twice daily at dose 150 mg/kg in two chemotherapy cycles (Days 1-3 and 7-9). The compound 128 was solubilized in 5% N-methyl-2-pyrollidine, 30% polyethylene glycol 400, 65% tartar buffer (pH 3.0). Primary endpoint for analysis was reduction of tumor volume (10 mice/group), which was quantified by caliperation. Analysis of treated animals was preformed in comparison with vehicle treated mice. Body weight of experimental animals was also evaluated in parallel in order to reflect toxicity of the therapy. Comparative analysis of tumor volumes and body weights was performed using non-parametric t-test.
smiles,measurement,setting,value
"CCC(CO)Nc1nc(NCc2cccc(OC)c2O)c2ncn(C(C)C)c2n1 (racemic) [Compound 128, (RS)-2-({6-[(2-hydroxy-3-methoxybenzyl)amino]-9-isopropyl-9-H-purin-2-yl}amino)butan-1-ol]",IC50,"[1]; Homo sapiens, MCF7, read-out: Cytotoxic activity IC50 (μM) MCF7",5 µM
same,number of viable cells (antiproliferative activity),"[1]; MCF7, 72 h",significantly reduces the number of living cells
same,levels of serine 2 and serine 5 phosphorylation of RNA polymerase II CTD,[2],substantially reduced; also recorded: is inhibited
same,p53 (effect): induction of p53 protein,p53; Arn8 cells stable transfected with a β-galactosidase reporter gene,++
same,total β-galactosidase activity,"p53; Arn8 cells, 5 μM, 12 and 24 hours after treatment, vs DMSO control",strong activity of β-galactosidase
same,p53 (peak concentration in μM),"p53; Arn8 cells, concentration inducing maximum of β-galactosidase activity",8.0 µM
same,activation of p53-dependent transcription,"p53; Arn8 reporter cell line, β-galactosidase reporter activity",proved to activate p53-dependent transcription
same,body weight of treated animals,P388D1 leukemia,reducing body weight of treated animals
same,mean survival time,P388D1 leukemia,27.4 days
same,"survival (Kaplan-Meier, log-rank test)","P388D1 leukemia; vs vehicle, P=0.0427",significantly better survival
same,mean survival time,A549 lung adenocarcinoma; Days 1-3 and 7-9,39.1 days
same,tolerability,A549 lung adenocarcinoma; Days 1-3 and 7-9,good tolerability
same,tumor volume,"A549 lung adenocarcinoma; Days 1-3 and 7-9, vs vehicle, P=0.0506",significantly smaller tumors
same,body weight of treated animals,A549 lung adenocarcinoma; significant at Day 52 only,only slight reduction the body weight
